Test system: rice (Diamant variety)
Test: Rice seed treatment with BHMPA salts: germinating power
Format: in vivo
Procedure, shortened: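 Seeds (50 per Petri dish on two layers of filter paper) soaked 1 h in BHMPA or its Ca, Mg, Na, Co, Mn, Cu or Zn salts at 1·10^−6-1·10^−12%, with water controls. Germination energy read on day 4, germination on day 8 (wheat) or day 7 (rice, corn), as % means of four replicates. Germinating power taken as root and sprout length plus wet and dry mass per 100 seedlings.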

[1] = rice seed treatment, comparison with Melaphen (Table XXXIII), solution 1 · 10^−9%
[2] = rice seeds, solution concentration 1 · 10^−6%
[3] = rice seeds, solution concentration 1 · 10^−7%
[4] = rice seeds, solution concentration 1 · 10^−8%
[5] = rice seeds, solution concentration 1 · 10^−9%
[6] = rice seeds, solution concentration 1 · 10^−10%
[7] = rice seeds, solution concentration 1 · 10^−11%
[8] = rice seeds, solution concentration 1 · 10^−12%
[9] = rice, vs control, 1·10^−9% solution

## O=P([O-])(CO)CO.O=P([O-])(CO)CO.[Ca+2] [Ca-salt, Calcium BHMPA Salt]
rice
  optimum concentration for treating rice seeds before sowing: 1·10^−9%
[1]
  Length, root: 6.2 cm
  Length, root, + % to control: 29%
  Length, sprout: 3.5 cm
  Length, sprout, + % to control: 35%
  Mass, dry, root: 0.23 g/100 plantlings
  Mass, dry, root, + % to control: 9.5%
  Mass, dry, sprout: 0.27 g/100 plantlings
  Mass, dry, sprout, + % to control: 8%
  Mass, wet, root: 1.33 g/100 plantlings
  Mass, wet, root, + % to control: 36%
  Mass, wet, sprout: 2.24 g/100 plantlings
  Mass, wet, sprout, + % to control: 48%
[2]
  Length, root: 5.7 cm
  Length, root, + % to control: 10%
  Length, sprout: 2.8 cm
  Length, sprout, + % to control: 12%
  Mass, dry, root: 0.19 g/100 plantlings
  Mass, dry, root, + % to control: 12%
  Mass, dry, sprout: 0.23 g/100 plantlings
  Mass, dry, sprout, + % to control: 9.5%
  Mass, wet, root: 1.10 g/100 plantlings
  Mass, wet, root, + % to control: 14.5%
  Mass, wet, sprout: 1.92 g/100 plantlings
  Mass, wet, sprout, + % to control: 9%
[3]
  Length, root: 5.9 cm
  Length, root, + % to control: 13%
  Length, sprout: 3.0 cm
  Length, sprout, + % to control: 20%
  Mass, dry, root: 0.24 g/100 plantlings
  Mass, dry, root, + % to control: 41%
  Mass, dry, sprout: 0.26 g/100 plantlings
  Mass, dry, sprout, + % to control: 24%
  Mass, wet, root: 1.21 g/100 plantlings
  Mass, wet, root, + % to control: 26%
  Mass, wet, sprout: 2.16 g/100 plantlings
  Mass, wet, sprout, + % to control: 23%
[4]
  Length, root: 6.3 cm
  Length, root, + % to control: 21%
  Length, sprout: 3.1 cm
  Length, sprout, + % to control: 24%
  Mass, dry, root: 0.27 g/100 plantlings
  Mass, dry, root, + % to control: 59%
  Mass, dry, sprout: 0.28 g/100 plantlings
  Mass, dry, sprout, + % to control: 33%
  Mass, wet, root: 1.24 g/100 plantlings
  Mass, wet, root, + % to control: 29%
  Mass, wet, sprout: 2.25 g/100 plantlings
  Mass, wet, sprout, + % to control: 28%
[5]
  Length, root: 6.6 cm
  Length, root, + % to control: 27%
  Length, sprout: 3.2 cm
  Length, sprout, + % to control: 28%
  Mass, dry, root: 0.30 g/100 plantlings
  Mass, dry, root, + % to control: 76%
  Mass, dry, sprout: 0.32 g/100 plantlings
  Mass, dry, sprout, + % to control: 52%
  Mass, wet, root: 1.29 g/100 plantlings
  Mass, wet, root, + % to control: 34%
  Mass, wet, sprout: 2.36 g/100 plantlings
  Mass, wet, sprout, + % to control: 34%
[6]
  Length, root: 6.4 cm
  Length, root, + % to control: 23%
  Length, sprout: 3.0 cm
  Length, sprout, + % to control: 20%
  Mass, dry, root: 0.28 g/100 plantlings
  Mass, dry, root, + % to control: 65%
  Mass, dry, sprout: 0.29 g/100 plantlings
  Mass, dry, sprout, + % to control: 38%
  Mass, wet, root: 1.27 g/100 plantlings
  Mass, wet, root, + % to control: 32%
  Mass, wet, sprout: 2.28 g/100 plantlings
  Mass, wet, sprout, + % to control: 29.5%
[7]
  Length, root: 6.0 cm
  Length, root, + % to control: 15%
  Length, sprout: 2.9 cm
  Length, sprout, + % to control: 16%
  Mass, dry, root: 0.23 g/100 plantlings
  Mass, dry, root, + % to control: 35%
  Mass, dry, sprout: 0.27 g/100 plantlings
  Mass, dry, sprout, + % to control: 28.5%
  Mass, wet, root: 1.22 g/100 plantlings
  Mass, wet, root, + % to control: 27%
  Mass, wet, sprout: 1.98 g/100 plantlings
  Mass, wet, sprout, + % to control: 12.5%
[8]
  Length, root: 5.6 cm
  Length, root, + % to control: 8%
  Length, sprout: 2.7 cm
  Length, sprout, + % to control: 8%
  Mass, dry, root: 0.19 g/100 plantlings
  Mass, dry, root, + % to control: 12%
  Mass, dry, sprout: 0.26 g/100 plantlings
  Mass, dry, sprout, + % to control: 24%
  Mass, wet, root: 1.06 g/100 plantlings
  Mass, wet, root, + % to control: 10%
  Mass, wet, sprout: 1.88 g/100 plantlings
  Mass, wet, sprout, + % to control: 7%
[9]
  dry mass of the roots increased by: 76%
  dry mass of the sprouts increased by: 52%
  length of the root increased by: 27%
  length of the sprout increased by: 28%
  wet mass of the roots increased by: 34%
  wet mass of the sprouts increased by: 34%

From patent US10781224B2, “Bis(oxymethyl)phosphinic acid and biogenic metal salts thereof as regulators of plant growth and development” (priority 2016, dated 2020)
